Here are results for 2 compounds from patent US6949544B2, “Inhibitors of c-Jun N-terminal kinases (JNK) and other protein kinases” (Vertex Pharmaceuticals Incorporated, priority 2001, dated 2005).

Assay [1] deals with T1, Lck kinase purified from bovine thymus (Bos taurus, UniProt Q3ZCM0).
T1 construct: Lck kinase purified from bovine thymus; purchased Upstate Biotechnology 14-106; host or cells: bovine thymus (tissue-purified)
In words: Lck inhibition assay (33P incorporation into poly Glu-Tyr). The note with it: 10 μM ATP; read-out: Activity in the Lck Inhibition Assay (Ki rating A-C). The class given is biochemical. The gist of the method:
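Filter-binding radiometric assay of 33P transfer from ATP to poly Glu-Tyr (4:1, 5 mg/ml) by bovine thymus Lck in 0.05 M HEPES pH 7.6, 10 mM MgCl2, 2 mM DTT, 0.25 mg/ml BSA, 10 μM ATP. After 10 min at 30° C, reaction started with 33P-ATP, run 20 min, quenched with TCA; filter-bound radioactivity counted by scintillation.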

Another assay addresses CDK-2/Cyclin A (Homo sapiens, UniProt P24941). In words: CDK2 inhibition assay (standard coupled enzyme assay). Format: biochemical. The note with it: 25 nM CDK-2/Cyclin A; read-out: CDK2 Inhibitory Activity (Ki rating A-C). The gist of the method:
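Pyruvate kinase/lactate dehydrogenase-coupled assay in pH 7.5 HEPES with 100 μM peptide substrate and ATP […]; compound (30 μM final) preincubated 10 min at 30° C before adding CDK-2/Cyclin A to 25 nM.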

T1 sequence (Q3ZCM0 1-509): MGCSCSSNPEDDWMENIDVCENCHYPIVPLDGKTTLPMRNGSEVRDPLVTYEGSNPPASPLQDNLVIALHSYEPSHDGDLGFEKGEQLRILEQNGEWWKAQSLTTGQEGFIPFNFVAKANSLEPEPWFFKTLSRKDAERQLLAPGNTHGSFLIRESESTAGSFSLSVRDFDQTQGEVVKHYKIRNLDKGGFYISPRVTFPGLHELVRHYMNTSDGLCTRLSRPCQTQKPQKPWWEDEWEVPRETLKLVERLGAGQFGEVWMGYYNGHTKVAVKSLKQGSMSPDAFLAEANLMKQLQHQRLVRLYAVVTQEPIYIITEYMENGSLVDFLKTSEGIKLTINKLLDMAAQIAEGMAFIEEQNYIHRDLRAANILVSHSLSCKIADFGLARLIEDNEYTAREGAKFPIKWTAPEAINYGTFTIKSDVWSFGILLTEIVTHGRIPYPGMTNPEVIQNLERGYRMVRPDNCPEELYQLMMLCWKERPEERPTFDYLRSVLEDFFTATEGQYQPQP

The Ki is the dissociation constant of the complex between target and ligand, obtained from inhibition or displacement. As for `COc1cc(-c2ccnc(Nc3ccc(N)cc3)n2)cc(OC)c1OC` [Compound I-34], the Ki was greater than 1000 nM in assay [1] and greater than 5000 nM at CDK-2/Cyclin A.

As for `COc1cc(-c2ccnc(Nc3cccc(N)c3)n2)cc(OC)c1OC` [Compound I-57], the Ki in assay [1] is 100 to 1000 nM; at CDK-2/Cyclin A, greater than 5000 nM.
